Results reported in patent US20260217767A1, “NOVEL A4B7 THIOETHER PEPTIDE DIMER ANTAGONISTS” (Protagonist Therapeutics, Inc., priority 2014, published 2026).
pIC50: −log10 of the molar value. *1 amine or outer side, *2 acyl side, *3 side chain or, on linkers, in order; H or OH if unused. Where a SMILES comes first, the peptide text is derived from it. Bridges are numbered along the chain shown (N, C = ends). Roman numbers before positions name the chains, in order. [ ]: non-standard residue; d: D form. Diglycolyl = O=C(COCC(=O)[*:2])[*:1]; NMeR = CN[C@@H](CCCNC(=N)N)C(=O)O; X1 = O=C(c1ccccc1C[*:2])[*:1]; Pen = CC(C)(S)[C@H](N)C(=O)O

Key:
[1] = Simulated Intestinal Fluid (SIF) Stability Assay; assay type: in vitro ADME; conditions: pig, porcine pancreatin, 37° C.; dimers, Table 7
Outline: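 Percent peptide remaining over time was measured by LC-MS/MS as the peak-area ratio to internal standard, and a first-order decay fit gave half-life. Digests contained 22 μM peptide and 1% pancreatin in pH 6.5 FaSSIF buffer at 37° C. Aliquots were quenched in organic solvent with formic acid.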

[2] = molecular target: T1, α4β1 (Homo sapiens, UniProt P05556+P13612); experiment: α4β1-VCAM Competition ELISA; assay type: binding; conditions: thioether peptide dimers, Table 7; read-out: ELISA A4B1
T1 construct: purchased R&D Systems 5668-A4
T1 sequence (P13612 34-977 limits assumed): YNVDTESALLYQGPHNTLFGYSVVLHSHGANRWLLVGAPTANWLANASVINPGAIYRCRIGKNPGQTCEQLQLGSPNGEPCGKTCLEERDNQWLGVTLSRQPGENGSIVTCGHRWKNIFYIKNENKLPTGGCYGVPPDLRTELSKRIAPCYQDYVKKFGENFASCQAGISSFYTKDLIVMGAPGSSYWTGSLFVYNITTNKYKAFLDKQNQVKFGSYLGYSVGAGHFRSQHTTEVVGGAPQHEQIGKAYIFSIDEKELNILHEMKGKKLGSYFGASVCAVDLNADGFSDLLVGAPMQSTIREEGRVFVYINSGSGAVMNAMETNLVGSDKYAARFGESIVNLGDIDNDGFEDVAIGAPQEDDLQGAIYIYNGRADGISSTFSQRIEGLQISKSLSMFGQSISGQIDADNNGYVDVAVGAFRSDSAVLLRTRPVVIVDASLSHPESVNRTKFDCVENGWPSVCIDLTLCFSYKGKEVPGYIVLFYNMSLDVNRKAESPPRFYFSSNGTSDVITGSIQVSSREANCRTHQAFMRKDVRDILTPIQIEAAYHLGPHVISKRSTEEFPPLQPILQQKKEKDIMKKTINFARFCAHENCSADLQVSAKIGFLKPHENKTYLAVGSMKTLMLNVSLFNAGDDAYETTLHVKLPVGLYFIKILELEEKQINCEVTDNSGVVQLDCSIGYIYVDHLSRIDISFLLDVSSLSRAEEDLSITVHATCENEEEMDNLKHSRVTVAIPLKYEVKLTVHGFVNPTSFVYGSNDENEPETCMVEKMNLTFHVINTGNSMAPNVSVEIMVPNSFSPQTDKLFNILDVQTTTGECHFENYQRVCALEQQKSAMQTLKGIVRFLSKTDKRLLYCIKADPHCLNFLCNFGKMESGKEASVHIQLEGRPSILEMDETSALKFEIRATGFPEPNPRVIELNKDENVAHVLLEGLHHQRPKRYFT
T1 sequence (P05556 21-728 limits assumed): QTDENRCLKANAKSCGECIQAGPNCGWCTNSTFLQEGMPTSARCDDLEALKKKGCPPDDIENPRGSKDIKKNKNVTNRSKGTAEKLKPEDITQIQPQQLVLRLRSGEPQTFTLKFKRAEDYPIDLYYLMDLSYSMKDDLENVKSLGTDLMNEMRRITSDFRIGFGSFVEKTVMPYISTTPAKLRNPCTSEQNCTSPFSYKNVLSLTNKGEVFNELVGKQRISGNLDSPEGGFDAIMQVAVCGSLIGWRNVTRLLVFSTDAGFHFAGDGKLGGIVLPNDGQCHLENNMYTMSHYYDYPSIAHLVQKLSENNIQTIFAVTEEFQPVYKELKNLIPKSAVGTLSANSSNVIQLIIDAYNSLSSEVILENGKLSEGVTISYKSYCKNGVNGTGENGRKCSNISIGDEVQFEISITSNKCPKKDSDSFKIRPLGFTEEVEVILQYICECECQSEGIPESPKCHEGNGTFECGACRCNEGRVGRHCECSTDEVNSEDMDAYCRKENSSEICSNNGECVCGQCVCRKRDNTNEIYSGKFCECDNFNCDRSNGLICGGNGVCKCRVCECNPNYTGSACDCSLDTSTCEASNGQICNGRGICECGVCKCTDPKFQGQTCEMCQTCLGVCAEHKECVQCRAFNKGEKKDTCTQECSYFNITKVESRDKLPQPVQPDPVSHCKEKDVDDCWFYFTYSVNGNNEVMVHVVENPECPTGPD
Outline: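 rh VCAM-1-Fc coated plates; α4β1 (final 60 nM) and peptide (final 100 μM) incubated 2 h at 37° C. in 50 mM Tris-HCl pH 7.6, 100 mM NaCl, 1 mM MnCl2 or MgCl2, 0.05% Tween-20. Bound integrin detected with anti-CD49d 9F10 and HRP anti-mouse IgG, TMB read at 450 nm.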

[3] = molecular target: Jurkat E6.1 cells (Homo sapiens, UniProt P05556+P13612); experiment: α4β1-VCAM Cell Adhesion Assay; assay type: cell-based; conditions: thioether peptide dimers, Table 7; read-out: Cell Adhesion A4B1
Chain of Jurkat E6.1 cells (P13612 34-1032): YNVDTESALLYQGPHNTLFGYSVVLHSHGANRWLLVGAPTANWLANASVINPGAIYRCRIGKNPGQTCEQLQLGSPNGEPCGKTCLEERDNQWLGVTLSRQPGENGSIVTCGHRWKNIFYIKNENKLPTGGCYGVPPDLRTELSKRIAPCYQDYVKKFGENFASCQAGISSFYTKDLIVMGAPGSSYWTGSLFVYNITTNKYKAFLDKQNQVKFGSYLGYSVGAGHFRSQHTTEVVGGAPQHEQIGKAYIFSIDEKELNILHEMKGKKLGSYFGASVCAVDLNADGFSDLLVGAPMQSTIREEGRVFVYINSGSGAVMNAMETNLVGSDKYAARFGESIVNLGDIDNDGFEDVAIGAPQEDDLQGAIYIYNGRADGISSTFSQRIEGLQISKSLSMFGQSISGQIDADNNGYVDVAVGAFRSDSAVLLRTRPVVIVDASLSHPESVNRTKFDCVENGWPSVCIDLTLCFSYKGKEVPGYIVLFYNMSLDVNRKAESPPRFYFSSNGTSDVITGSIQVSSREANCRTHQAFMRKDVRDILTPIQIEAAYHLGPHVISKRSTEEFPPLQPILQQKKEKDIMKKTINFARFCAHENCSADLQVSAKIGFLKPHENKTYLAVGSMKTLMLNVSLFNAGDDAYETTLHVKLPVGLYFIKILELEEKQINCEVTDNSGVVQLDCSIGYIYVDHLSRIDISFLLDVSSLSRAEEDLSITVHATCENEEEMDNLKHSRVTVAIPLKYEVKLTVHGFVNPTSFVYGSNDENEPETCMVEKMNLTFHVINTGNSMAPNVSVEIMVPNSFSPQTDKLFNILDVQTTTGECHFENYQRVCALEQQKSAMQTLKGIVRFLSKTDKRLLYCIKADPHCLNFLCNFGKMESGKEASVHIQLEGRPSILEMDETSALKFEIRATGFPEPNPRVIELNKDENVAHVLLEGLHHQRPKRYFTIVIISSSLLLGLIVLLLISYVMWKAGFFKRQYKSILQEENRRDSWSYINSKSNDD
Chain of Jurkat E6.1 cells (P05556 21-798): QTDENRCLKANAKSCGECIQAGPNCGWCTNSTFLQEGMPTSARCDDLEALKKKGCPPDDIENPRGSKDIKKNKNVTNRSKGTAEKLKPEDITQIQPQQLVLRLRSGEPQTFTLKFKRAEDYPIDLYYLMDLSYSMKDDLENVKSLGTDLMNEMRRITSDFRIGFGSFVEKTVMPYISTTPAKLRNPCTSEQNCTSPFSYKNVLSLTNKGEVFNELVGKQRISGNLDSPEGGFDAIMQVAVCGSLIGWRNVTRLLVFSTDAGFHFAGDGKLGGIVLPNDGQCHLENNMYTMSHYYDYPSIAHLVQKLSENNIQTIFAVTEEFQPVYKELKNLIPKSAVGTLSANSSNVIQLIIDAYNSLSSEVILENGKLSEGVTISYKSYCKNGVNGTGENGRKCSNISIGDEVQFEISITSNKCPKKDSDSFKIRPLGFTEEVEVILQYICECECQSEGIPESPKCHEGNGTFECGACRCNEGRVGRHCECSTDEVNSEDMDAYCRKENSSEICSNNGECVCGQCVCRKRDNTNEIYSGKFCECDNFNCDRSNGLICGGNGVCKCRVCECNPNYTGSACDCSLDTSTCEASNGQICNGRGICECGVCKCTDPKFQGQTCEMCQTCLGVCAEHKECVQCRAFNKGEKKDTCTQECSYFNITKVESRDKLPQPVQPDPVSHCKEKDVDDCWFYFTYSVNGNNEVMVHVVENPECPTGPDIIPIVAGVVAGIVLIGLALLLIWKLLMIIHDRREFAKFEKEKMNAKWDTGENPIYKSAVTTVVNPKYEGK
Outline: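 Jurkat E6.1 cells (200,000 per well, in DMEM with 0.1% BSA and 1 mM MnCl2) allowed to adhere to rh VCAM-1 Fc-coated wells with serially diluted peptide for 30-45 min at 37° C. After washing, bound cells quantified by MTT absorbance at 570 nm, cell-free background subtracted, for dose response.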

`CC(C)C[C@@H]1NC(=O)[C@H]([C@@H](C)O)NC(=O)[C@H](CC(=O)O)NC(=O)[C@H](CO)NC(=O)[C@H](CCCNC(=N)N)N(C)C(=O)c2ccccc2CSC(C)(C)[C@@H](C(=O)N[C@@H](Cc2c[nH]c3ccccc23)C(=O)N[C@H](CCC(=O)O)C(=O)N[C@H](CCCCNC(=O)COCC(=O)NCCCC[C@@H](NC(=O)[C@@H](CCC(=O)O)NC(=O)[C@H](Cc2c[nH]c3ccccc23)NC(=O)[C@H]2NC(=O)[C@H](CC(C)C)NC(=O)[C@H]([C@@H](C)O)NC(=O)[C@H](CC(=O)O)NC(=O)[C@H](CO)NC(=O)[C@H](CCCNC(=N)N)N(C)C(=O)c3ccccc3CSC2(C)C)C(=O)O)C(=O)O)NC1=O` [compound 209] (I: [NMeR]SDTL[Pen]W[dE][dK]-OH / II: [NMeR]SDTL[Pen]W[dE][dK]-OH; linker I:9-II:9 via Diglycolyl; linker I:N-I:6, II:N-II:6 via X1) showed a half-life [1] greater than 3 h, a pIC50 [2] of 6.00 to 7.00 and a pIC50 [3] of less than 4.00.
